Target: Vps34 enzyme (Homo sapiens (Human), UniProt Q8NEB9)
Assay: Vps34 biochemical assay (Adapta kinase assay)
Conditions: 20 μM ATP and 200 μM PI:PS in substrate mix, 1 h at room temperature, read-out: Median IC50 uM Adapta
Description: Dilution series of compounds of the invention were prepared in DMSO at 100 times the final assay concentration (n1=n0/3 in 10 points). The compounds were further diluted to 4 times the assay concentration in assay buffer (Life technologies buffer Q, PV5125, diluted 5 times supplemented with 2 mM DTT and 2 mM MnCl2). 2.5 μl of the diluted compounds were added to a 384 well assay plate followed by 2.5 μl of 16.5 nM Vps34 enzyme (Life technologies, PV5126). Enzyme and compounds were pre-incubated at rt for 15 min. Then 5 μl of substrate mix containing 20 μM ATP (Life technologies, PV3227) and 200 μM PI:PS substrate (Life technologies, PV5122) in assay buffer was added to the wells containing compound and enzyme. Mixing was performed by pipetting several times. The reaction was incubated at room temperature for 1 h. Then 5 μl stop-detection mix, prepared as described in the Adapta kinase assay kit instructions (Life technologies, PV5099) containing Adapta Eu-anti-ADP antibody (2.3 nM), Alexa Fluor 647 ADP tracer (9 nM) and EDTA (30 mM) in TR-FRET buffer, was added to quench the reaction. Mixing was performed by pipetting several times. The assay plate was then incubated at room temperature for 30 min and read with Artemis micro plate reader. Percent inhibition of the compounds as compared to DMSO treated control samples was calculated. By the use of Dotmatics software compound concentration versus percent inhibition was fitted to generate IC50 values.

Sequence of Vps34 enzyme (Q8NEB9 whole entry): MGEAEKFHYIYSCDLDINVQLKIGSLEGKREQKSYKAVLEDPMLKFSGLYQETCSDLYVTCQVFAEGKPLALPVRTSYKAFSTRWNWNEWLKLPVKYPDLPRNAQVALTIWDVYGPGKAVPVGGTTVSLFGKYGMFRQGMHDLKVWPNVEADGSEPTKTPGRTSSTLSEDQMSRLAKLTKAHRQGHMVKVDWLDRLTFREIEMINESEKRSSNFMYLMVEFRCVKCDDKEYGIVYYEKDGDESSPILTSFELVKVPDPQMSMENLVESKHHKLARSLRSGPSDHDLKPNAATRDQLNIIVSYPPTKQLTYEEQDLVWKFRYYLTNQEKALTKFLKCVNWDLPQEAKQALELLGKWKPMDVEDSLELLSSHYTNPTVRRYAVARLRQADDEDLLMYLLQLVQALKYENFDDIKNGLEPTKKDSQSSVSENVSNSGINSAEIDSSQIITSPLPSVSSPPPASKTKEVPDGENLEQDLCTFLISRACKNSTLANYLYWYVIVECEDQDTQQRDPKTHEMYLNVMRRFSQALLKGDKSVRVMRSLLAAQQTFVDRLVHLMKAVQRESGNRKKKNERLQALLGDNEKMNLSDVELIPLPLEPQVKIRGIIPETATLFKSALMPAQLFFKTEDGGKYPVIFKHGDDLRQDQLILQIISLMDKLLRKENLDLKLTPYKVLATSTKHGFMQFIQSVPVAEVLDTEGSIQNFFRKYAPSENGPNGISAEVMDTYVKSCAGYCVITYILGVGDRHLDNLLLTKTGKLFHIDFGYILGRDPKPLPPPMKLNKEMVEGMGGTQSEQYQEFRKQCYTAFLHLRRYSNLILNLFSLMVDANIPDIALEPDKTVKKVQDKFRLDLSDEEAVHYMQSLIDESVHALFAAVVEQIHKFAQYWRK

Row | IC50 | Compound
1 | 0.09 µM | COC(C)(C)C1CCCN1c1cc(N2CCOC[C@H]2C)cc(=O)[nH]1 (mixture of isomers) [Example 11, (R) and (S) 6-[2-(1-methoxy-1-methyl-ethyl)pyrrolidin-1-yl]-4-[(3R)-3-methylmorpholin-4-yl]-1H-pyridin-2-one]
2 | 0.09 µM | C[C@@H]1COCCN1c1cc(N2CCCC2C2CCCCC2)[nH]c(=O)c1 (mixture of isomers) [Example 12, (R) and (S) 6-(2-cyclohexylpyrrolidin-1-yl)-4-[(3R)-3-methylmorpholin-4-yl]-1H-pyridin-2-one]
3 | 0.04 µM | C[C@@H]1COCCN1c1cc(N2CCCC2c2cc(F)ccc2F)[nH]c(=O)c1 (mixture of isomers) [Example 14, (R) and (S) 6-[2-(2,5-difluorophenyl)pyrrolidin-1-yl]-4-[(3R)-3-methylmorpholin-4-yl]-1H-pyridin-2-one]
4 | 0.06 µM | C[C@@H]1COCCN1c1cc(N2CCCC2c2cccc(OC(F)(F)F)c2)[nH]c(=O)c1 (mixture of isomers) [Example 15, (R) and (S) 4-[(3R)-3-methylmorpholin-4-yl]-6-[2-[3-(trifluoromethoxy)phenyl]pyrrolidin-1-yl]-1H-pyridin-2-one]
5 | 0.06 µM | C[C@@H]1COCCN1c1cc(N2CCCC2c2ccccc2)[nH]c(=O)c1 (mixture of isomers) [Example 18, (R) and (S) 4-[(3R)-3-methylmorpholin-4-yl]-6-(2-phenylpyrrolidin-1-yl)-1H-pyridin-2-one]
6 | 0.1 µM | C[C@@H]1COCCN1c1cc(N2CCCC2c2cnn(C)c2)[nH]c(=O)c1 (mixture of isomers) [Example 19, (R) and (S) 4-[(3R)-3-methylmorpholin-4-yl]-6-[2-(1-methylpyrazol-4-yl)pyrrolidin-1-yl]-1H-pyridin-2-one]
7 | 0.2 µM | Cc1cc(C2CCCN2c2cc(N3CCOC[C@H]3C)cc(=O)[nH]2)nn1C (mixture of isomers) [Example 20, (R) and (S) 6-[2-(1,5-dimethylpyrazol-3-yl)pyrrolidin-1-yl]-4-[(3R)-3-methylmorpholin-4-yl]-1H-pyridin-2-one]
8 | 0.06 µM | CCn1ccc(C2CCCN2c2cc(N3CCOC[C@H]3C)cc(=O)[nH]2)n1 (mixture of isomers) [Example 21, (R) and (S) 6-[2-(1-ethylpyrazol-3-yl)pyrrolidin-1-yl]-4-[(3R)-3-methylmorpholin-4-yl]-1H-pyridin-2-one]
9 | 0.06 µM | Cc1ccc(C2CCCN2c2cc(N3CCOC[C@H]3C)cc(=O)[nH]2)o1 (mixture of isomers) [Example 22, (R) and (S) 6-[2-(5-methyl-2-furyl)pyrrolidin-1-yl]-4-[(3R)-3-methylmorpholin-4-yl]-1H-pyridin-2-one]
10 | 0.03 µM | C[C@@H]1COCCN1c1cc(N2CCCC2c2cccc(N(C)C)c2)[nH]c(=O)c1 (mixture of isomers) [Example 23, (R) and (S) 6-[2-[3-(dimethylamino)phenyl]pyrrolidin-1-yl]-4-[(3R)-3-methylmorpholin-4-yl]-1H-pyridin-2-one]
11 | 0.03 µM | CC1COCCN1c1cc(N2CCOC[C@H]2C)cc(=O)[nH]1 (mixture of isomers) [Example 24, (R) and (S) 4-[(3R)-3-methylmorpholin-4-yl]-6-(3-methylmorpholin-4-yl)-1H-pyridin-2-one]
12 | 0.06 µM | C[C@@H]1COCCN1c1cc(N2CCOCC2c2ccccc2)[nH]c(=O)c1 (mixture of isomers) [Example 26, (R) and (S) 4-[(3R)-3-methylmorpholin-4-yl]-6-(3-phenylmorpholin-4-yl)-1H-pyridin-2-one]
13 | 0.05 µM | C[C@@H]1COCCN1c1cc(N2CCCC2c2ccccn2)[nH]c(=O)c1 (mixture of isomers) [Example 38, (R) and (S) 4-[(3R)-3-methylmorpholin-4-yl]-6-[2-(2-pyridyl)pyrrolidin-1-yl]-1H-pyridin-2-one]
14 | 0.05 µM | C[C@@H]1COCCN1c1cc(N2CCCC2c2nccs2)[nH]c(=O)c1 (mixture of isomers) [Example 39, (R) and (S) 4-[(3R)-3-methylmorpholin-4-yl]-6-(2-thiazol-2-ylpyrrolidin-1-yl)-1H-pyridin-2-one]
15 | 0.1 µM | Cc1cc(C2CCCN2c2cc(N3CCOC[C@H]3C)cc(=O)[nH]2)no1 (mixture of isomers) [Example 40, (R) and (S) 6-[2-(5-methylisoxazol-3-yl)pyrrolidin-1-yl]-4-[(3R)-3-methylmorpholin-4-yl]-1H-pyridin-2-one]
16 | 0.2 µM | COC(C)(C)C1CCCN1c1cc(N2CCOC[C@H]2C)cc(=O)[nH]1 (single isomer, unassigned) [Example 11_1]
17 | 0.3 µM | COC(C)(C)C1CCCN1c1cc(N2CCOC[C@H]2C)cc(=O)[nH]1 (single isomer, unassigned) [Example 11_2]
18 | 0.2 µM | C[C@@H]1COCCN1c1cc(N2CCCC2C2CCCCC2)[nH]c(=O)c1 (single isomer, unassigned) [Example 12_1]
19 | 0.2 µM | C[C@@H]1COCCN1c1cc(N2CCCC2C2CCCCC2)[nH]c(=O)c1 (single isomer, unassigned) [Example 12_2]
20 | 0.06 µM | C[C@@H]1COCCN1c1cc(N2CCCC2c2cccc(F)c2)[nH]c(=O)c1 (single isomer, unassigned) [Example 13_1]
21 | 0.1 µM | C[C@@H]1COCCN1c1cc(N2CCCC2c2cccc(F)c2)[nH]c(=O)c1 (single isomer, unassigned) [Example 13_2]
22 | 0.02 µM | C[C@@H]1COCCN1c1cc(N2CCCC2c2cc(F)ccc2F)[nH]c(=O)c1 (single isomer, unassigned) [Example 14_1]
23 | 0.05 µM | C[C@@H]1COCCN1c1cc(N2CCCC2c2cc(F)ccc2F)[nH]c(=O)c1 (single isomer, unassigned) [Example 14_2]

Row | IC50 | Compound
24 | 0.2 µM | C[C@@H]1COCCN1c1cc(N2CCCC2c2cccc(OC(F)(F)F)c2)[nH]c(=O)c1 (single isomer, unassigned) [Example 15_1]
25 | 0.2 µM | C[C@@H]1COCCN1c1cc(N2CCCC2c2cccc(OC(F)(F)F)c2)[nH]c(=O)c1 (single isomer, unassigned) [Example 15_2]
26 | 0.03 µM | C[C@@H]1COCCN1c1cc(N2CCCC2c2cccc(C(F)(F)F)c2)[nH]c(=O)c1 (single isomer, unassigned) [Example 16_1]
27 | 0.08 µM | C[C@@H]1COCCN1c1cc(N2CCCC2c2cccc(C(F)(F)F)c2)[nH]c(=O)c1 (single isomer, unassigned) [Example 16_2]
28 | 0.02 µM | COc1cccc(C2CCCN2c2cc(N3CCOC[C@H]3C)cc(=O)[nH]2)c1 (single isomer, unassigned) [Example 17_1]
29 | 0.07 µM | C[C@@H]1COCCN1c1cc(N2CCCC2c2ccccc2)[nH]c(=O)c1 (single isomer, unassigned) [Example 18_1]
30 | 0.3 µM | C[C@@H]1COCCN1c1cc(N2CCCC2c2cnn(C)c2)[nH]c(=O)c1 (single isomer, unassigned) [Example 19_1]
31 | 0.3 µM | C[C@@H]1COCCN1c1cc(N2CCCC2c2cnn(C)c2)[nH]c(=O)c1 (single isomer, unassigned) [Example 19_2]
32 | 0.06 µM | Cc1cc(C2CCCN2c2cc(N3CCOC[C@H]3C)cc(=O)[nH]2)nn1C (single isomer, unassigned) [Example 20_1]
33 | 0.2 µM | Cc1cc(C2CCCN2c2cc(N3CCOC[C@H]3C)cc(=O)[nH]2)nn1C (single isomer, unassigned) [Example 20_2]
34 | 0.1 µM | CCn1ccc(C2CCCN2c2cc(N3CCOC[C@H]3C)cc(=O)[nH]2)n1 (single isomer, unassigned) [Example 21_1]
35 | 0.3 µM | CCn1ccc(C2CCCN2c2cc(N3CCOC[C@H]3C)cc(=O)[nH]2)n1 (single isomer, unassigned) [Example 21_2]
36 | 0.04 µM | Cc1ccc(C2CCCN2c2cc(N3CCOC[C@H]3C)cc(=O)[nH]2)o1 (single isomer, unassigned) [Example 22_1]
37 | 0.1 µM | Cc1ccc(C2CCCN2c2cc(N3CCOC[C@H]3C)cc(=O)[nH]2)o1 (single isomer, unassigned) [Example 22_2]
38 | 0.2 µM | CC1COCCN1c1cc(N2CCOC[C@H]2C)cc(=O)[nH]1 (single isomer, unassigned) [Example 24_2]
39 | 0.08 µM | C[C@@H]1COCCN1c1cc(N2CCCCC2C(F)(F)F)[nH]c(=O)c1 (single isomer, unassigned) [Example 25_2]
40 | 0.3 µM | C[C@@H]1COCCN1c1cc(N2CCOCC2c2ccccc2)[nH]c(=O)c1 (single isomer, unassigned) [Example 26_2]
41 | 0.05 µM | C[C@@H]1COCCN1c1cc(N2CCCC2c2ccccn2)[nH]c(=O)c1 (single isomer, unassigned) [Example 38_1]
42 | 0.2 µM | C[C@@H]1COCCN1c1cc(N2CCCC2c2ccccn2)[nH]c(=O)c1 (single isomer, unassigned) [Example 38_2]
43 | 0.1 µM | Cc1cc(C2CCCN2c2cc(N3CCOC[C@H]3C)cc(=O)[nH]2)no1 (single isomer, unassigned) [Example 40_1]
44 | 0.1 µM | C[C@@H]1COCCN1c1cc(N2CCOCC2C(F)(F)F)[nH]c(=O)c1 (single isomer, unassigned) [Example 43_2]
45 | 0.006 µM | COc1cccc(C2CCCCN2c2cc(N3CCOC[C@H]3C)cc(=O)[nH]2)c1 (single isomer, unassigned) [Example 44_2]
